Molecular target: T1, Carnitine palmitoyl transferase I liver isoform (Sus scrofa, UniProt Q9MYX2)
T1 sequence (Q9MYX2 whole entry): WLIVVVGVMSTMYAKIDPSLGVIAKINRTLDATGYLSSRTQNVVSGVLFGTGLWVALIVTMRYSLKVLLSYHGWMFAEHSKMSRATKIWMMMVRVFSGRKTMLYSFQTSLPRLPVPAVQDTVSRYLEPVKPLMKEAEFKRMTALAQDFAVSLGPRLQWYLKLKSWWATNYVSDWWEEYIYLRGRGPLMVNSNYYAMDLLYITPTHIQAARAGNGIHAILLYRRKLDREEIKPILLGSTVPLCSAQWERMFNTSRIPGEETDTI
Experiment: ChEBML_44012
Method: Compound was tested for its inhibitory activity against carnitine palmitoyl transferase-A (CPT-A)

| Compound | IC50 |
| --- | --- |
| CCCCCCCCCCCCCCC1(C(=O)OC)CO1 (racemic) [2-Tetradecyl-oxirane-2-carboxylic acid methyl ester] | 300 nM |
| CCCCCCCCCCC1(C(=O)OC)CO1 (configuration not stated) [2-Decyl-oxirane-2-carboxylic acid methyl ester] | 680 nM |
| CCCCCCCCCCCCC1(C(=O)OC)CO1 (configuration not stated) [2-Dodecyl-oxirane-2-carboxylic acid methyl ester] | 600 nM |
| CCCCCCC1(C(=O)OC)CO1 (configuration not stated) [2-Hexyl-oxirane-2-carboxylic acid methyl ester] | 136000 nM |
| CCCCCCCCCCCC1(C(=O)OC)CO1 (configuration not stated) [2-Undecyl-oxirane-2-carboxylic acid methyl ester] | 1160 nM |

Next, values leading:

| IC50 | Compound |
| --- | --- |
| 500 nM | CCCCCCCCCCCCCC1(C(=O)OC)CO1 (configuration not stated) [2-Tridecyl-oxirane-2-carboxylic acid methyl ester] |
| 900 nM | CCCCCCCCCCCCCCC1(C(=O)O)CO1 (stereo not drawn) [(+/-)2-Tetradecyl-oxirane-2-carboxylic acid] |
